Measurements as given in patent publication US20250129120A1, “PEPTIDE HAVING ACTIVITY FOR PREVENTING HAIR LOSS OR PROMOTING HAIR GROWTH, AND USE THEREOF” (CAREGEN CO., LTD., priority 2021, published 2025).

Key:
[1] = test system: HHFDPC (human hair follicle dermal papilla cells); test: MTT proliferation assay in dermal papilla cells; assay type: cell-based; details: peptide 500 nM, 5 μM, and 50 μM, 72 hours, vs untreated control, FIG. 1
Protocol: While culturing human hair follicle dermal dermal papilla cells (HHFDPC), the absorbance was measured after treatment with the peptide of the present invention to confirm whether there was an effect of promoting the proliferation of the HHFDPC dermal papilla cells.
Specifically, HHFDPC (Sciencell, USA) was seeded at 4×10^3 cells/well in a 96-well culture plate, cultured in MSC complete medium (mesenchymal stem cell complete media, Sciencell, USA) for 24 hours, and then the medium was replaced with serum free MSC complete medium and cultured for another 24 hours. Then, the HHFDPC was treated with the peptide of SEQ ID NO: 1 prepared in the Preparation Example at concentrations of 500 nM, 5 μM, and 50 μM, respectively, and cultured at 37° C. for 72 hours. As a positive control, minoxidil was treated at a concentration of 1 μM, and as a negative control, HHFDPC without any treatment was used. Then, 10 ? of 5 mg/mL MTT solution was added and cultured in a 37° C. CO2 incubator for 4 hours to stain the cells. After removing the medium, the cells were treated with 100 μl of DMSO and shaken for 10 minutes, and the number of HHFDPC cells was confirmed by measuring absorbance at a wavelength of 540 nm using a spectrophotometer.

p-AKT = test: Western blotting of phosphorylated AKT in HHFDPC; assay type: cell-based, human; details: peptide 500 nM, 5 μM, and 50 µM, 24 hours, FIG. 2
Protocol: (§1) First, phosphorylated forms of AKT and ERK, which act as signaling molecules related to the proliferation of HHFDPC, were confirmed through Western blotting. Specifically, HHFDPC as in [Experiment Example 1-1] above was seeded at 4×10^5 cells/well in a 6-well culture plate, cultured in MSC complete medium (mesenchymal stem cell complete media) for 24 hours, and then the medium was replaced with serum free MSC complete medium and cultured for another 24 hours. Then, the HHFDPC was treated with the peptide of SEQ ID NO: 1 prepared in the Preparation Example at concentrations of 500 nM, 5 μM, and 50 µM, respectively, and cultured at 37° C. for 24 hours. As a positive control, minoxidil was treated at a concentration of 1 μM, and as a negative control, HHFDPC without any treatment was used. Then, Western blotting was performed to detect phosphorylated AKT and phosphorylated ERK. After washing with PBS, the cells were treated with 100 ? of lysis buffer to destroy cells, thereby obtaining cell lysate. After electrophoresis using a 10% SDS-PAGE gel, it was transferred to a PVDF membrane and blocked using 5% skim milk at room temperature for 30 minutes. […] After washing again with 0.1% PBS-T (0.1% Tween-20 in PBS) three times for 15 minutes each, p-AKT and p-ERK were detected by treatment with ECL solution (GE Healthcare, USA).

p-ERK = test: Western blotting of phosphorylated ERK in HHFDPC; assay type: cell-based, human; details: peptide 500 nM, 5 μM, and 50 µM, 24 hours, FIG. 2
Protocol: as §1

β-catenin = test: Western blotting of β-catenin moved to the nucleus in HHFDPC; assay type: cell-based, human; details: HHFDPC nuclear protein, peptide 500 nM, 5 μM, and 50 μM, 24 hours, FIG. 3
Protocol: In addition, in addition to p-AKT and p-ERK, in order to confirm the activation of β-catenin, which is known to affect cell proliferation and differentiation, whether β-catenin moved into the nucleus was confirmed through Western blotting. Specifically, the HHFDPC as in [Experiment Example 1-1] was seeded in a 6-well culture plate at an amount of 4×10^5 cells/well, cultured in MSC complete medium (mesenchymal stem cell complete media) for 24 hours. Next, the medium was replaced with serum free MSC complete medium and cultured again for 24 hours. Then, the HHFDPC was treated with the peptide of SEQ ID NO: 1 prepared in the Preparation Example at concentrations of 500 nM, 5 μM, and 50 μM, respectively, and cultured at 37° C. for 24 hours. As a positive control, minoxidil was treated at a concentration of 1 μM, and as a negative control, HHFDPC without any treatment was used. After washing with PBS, proteins in the nucleus were isolated using a nuclear protein extraction kit (Thermo scientific, USA). After electrophoresis using a 10% SDS-PAGE gel, it was transferred to a PVDF membrane and blocked using 5% skim milk at room temperature for 30 minutes. […] After washing again with 0.1% PBS-T (0.1% Tween-20 in PBS) three times for 15 minutes each, β-catenin was detected by treatment with ECL solution (GE Healthcare, USA).

LEF-1 = test: RT-PCR of LEF-1 expression in HHFDPC; assay type: cell-based, human; details: peptide 500 nM, 5 μM, and 50 μM, 24 hours, FIG. 4
Protocol: (§2) Furthermore, in order to determine whether the β-catenin moves to the nucleus and is activated to affect proliferation and differentiation, whether the expression of LEF-1, c-Myc and cyclin D1 (cyclin D1), which act as downstream factors, increases with β-catenin activation was confirmed through RT-PCR. Specifically, in the same manner as the previous Western blotting experiment, HHFDPC cells were cultured, treated with the peptides of the Preparation Example of the present invention at concentrations of 500 nM, 5 μM, and 50 μM, respectively, and cultured at 37° C. for 24 hours. After washing the cells with PBS, RNA was isolated by treating them with 300 […] of easy blue (intron, Korea). Then, CDNA was synthesized using a cDNA synthesis kit (enzynomics, Korea) by quantifying it with nano drop, and PCR was performed using primers for LEF-1, c-Myc and cyclin D1 (base sequences of the primer are listed in Table 2 below) and PCR premix (enzynomics, Korea). Electrophoresis was performed on a 1.5% agarose gel, and then the mRNA of LEF-1, c-Myc and cyclin D1 was detected using a band analysis system (Bio-Rad gel image system).

c-Myc = test: RT-PCR of c-Myc expression in HHFDPC; assay type: cell-based, human; details: peptide 500 nM, 5 μM, and 50 μM, 24 hours, FIG. 4
Protocol: as §2

cyclin D1 = test: RT-PCR of cyclin D1 expression in HHFDPC; assay type: cell-based, human; details: peptide 500 nM, 5 μM, and 50 μM, 24 hours, FIG. 4
Protocol: as §2

[2] = test system: DKK-1 protein (dickkopf-related protein 1); test: Western blotting of DKK-1 protein in DHT-treated HHFDPC; assay type: cell-based, human; details: HHFDPC with DHT 100 nM; peptide 500 nM, 5 μM, and 50 μM; 24 hours; vs negative control (DHT only); FIG. 5
Protocol: DKK-1 protein (dickkopf-related protein 1) is a hair loss-related protein known to be highly expressed in individuals with hair loss, especially male pattern hair loss, and its expression is known to be promoted by hormones such as DHT (Dihydrotestosterone). Accordingly, the expression of DKK-1 protein was induced by treating HHFDPC cells with DHT together with the peptide according to the Preparation Example of the present invention, and then the expression level of DKK-1 was measured through Western blotting to determine whether there was an effect of suppressing the expression of DKK-1 protein.
Specifically, HHFDPC as in [Experiment Example 1-1] was seeded in a 6-well culture plate at 4×10^5 cells/well and then cultured in MSC complete medium (mesenchymal stem cell complete media) for 24 hours. Next, the medium was replaced with serum free MSC complete medium and cultured again for 24 hours. In addition, the HHFDPC was treated with the peptide of SEQ ID NO: 1 prepared in Preparation Example at concentrations of 500 nM, 5 μM, and 50 μM, respectively, and at this time, DHT, an expression inducer of DKK-1 protein, was simultaneously treated at a concentration of 100 nM and then cultured at 37° C. for 24 hours. […] After washing again with 0.1% PBS-T (0.1% Tween-20 in PBS) three times for 15 minutes each, DKK-1 protein was detected by treatment with ECL solution (GE Healthcare, USA).

Ha3-II = test: RT-PCR of Ha3-II expression in HHORSC; assay type: cell-based, human; details: peptide 500 nM, 5 µM, and 50 μM, 72 hours, FIG. 6
Protocol: (§3) Specifically, HHORSC (human hair outer root sheath cell, Sciencell, USA) was seeded in a 6-well culture plate at 4×10^5 cells/well and then cultured in MSC complete medium (mesenchymal stem cell complete media) for 24 hours. Next, the medium was replaced with serum free MSC complete medium and cultured again for 24 hours. Then, the HHORSC was treated with the peptide of SEQ ID NO: 1 prepared in the Preparation Example at concentrations of 500 nM, […], and 50 μM, respectively, and cultured at 37° C. for 72 hours. As a positive control, EGF was treated at a concentration of 50 nM, and as a negative control, HHORSC without any treatment was used. After washing with PBS, RNA was isolated by treating with 300 ? of easy blue (intron, Korea). Then, cDNA was synthesized using a cDNA synthesis kit (enzynomics, Korea) by quantification using nano drop, and PCR was performed using primers for Ha3-II, Keratin 14, and Keratin 19 (the base sequences of primer are shown in Table 3 below) and PCR premix (enzynomics, Korea). Electrophoresis was performed on a 1.5% agarose gel, and the mRNAs of Ha3-II, Keratin 14, and Keratin 19 were detected using a band analysis system (Bio-Rad gel image system).

Keratin 14 = test: RT-PCR of Keratin 14 expression in HHORSC; assay type: cell-based, human; details: peptide 500 nM, and 50 μM, 72 hours, FIG. 6
Protocol: as §3

Keratin 19 = test: RT-PCR of Keratin 19 expression in HHORSC; assay type: cell-based, human; details: peptide 500 nM, and 50 μM, 72 hours, FIG. 6
Protocol: as §3

MSX2 = test: RT-PCR of MSX2 expression in HHGMC; assay type: cell-based, human; details: peptide 500 nM, 5 μM, and 50 μM, 72 hours, FIG. 7
Protocol: Specifically, HHGMC (human hair germinal matrix cell, Sciencell, USA) was seeded in a 6-well culture plate at 4×10^5 cells/well and then cultured in MSC complete medium (mesenchymal stem cell complete media) for 24 hours. Next, the medium was replaced with serum free MSC complete medium and cultured again for 24 hours. Then, the HHGMC was treated with the peptide of SEQ ID NO: 1 prepared in the Preparation Example at concentrations of 500 nM, 5 μM, and 50 μM, respectively, and cultured at 37° C. for 72 hours. As a positive control, EGF was treated at a concentration of 50 nM, and as a negative control, HHGMC without any treatment was used. After washing with PBS, RNA was isolated by treating with 300 ? of easy blue (intron, Korea). Next, cDNA was synthesized using a cDNA synthesis kit (enzynomics, Korea) by quantification using nano drop, and PCR was performed using primers for MSX2 (base sequences of the primer are listed in Table 4 below) and PCR premix (enzynomics, Korea). Electrophoresis was performed on a 1.5% agarose gel, and MSX2 mRNA was detected using a band analysis system (Bio-Rad gel image system).

## GGVPG [peptide of the present invention]
[1]
  proliferation of HHFDPC (absorbance at 540 nm, MTT): promoted depending on the concentration of the treated peptide
p-AKT
  phosphorylation of AKT (p-AKT): increased compared to the control group not treated with the peptide
p-ERK
  phosphorylation of ERK (p-ERK): increased compared to the control group not treated with the peptide
β-catenin
  migration of β-catenin to the nucleus (activation of β-catenin): migration due to activation of β-catenin increased
LEF-1
  amount of LEF-1 mRNA: increased further compared to the control group without any treatment
c-Myc
  amount of c-Myc mRNA: increased further compared to the control group without any treatment
Cyclin D1
  amount of cyclin D1 mRNA: increased further compared to the control group without any treatment
[2]
  amount of DKK-1 protein: reduced
Ha3-II
  amount of Ha3-II mRNA: increased further compared to the control group that did not receive any treatment
Keratin 14
  amount of Keratin 14 mRNA: increased further compared to the control group that did not receive any treatment
Keratin 19
  amount of Keratin 19 mRNA: increased further compared to the control group that did not receive any treatment
MSX2
  amount of MSX2 mRNA: increased further compared to the untreated control group
